Patent US8865653B2, “Method of treatment for immunogenic treatment resistant cancer” (Institut Gustave Roussy, priority 2010, dated 2014)

Legend:
[1] = system: U2OS cells stably expressing CRT-GFP; experiment: CRT-GFP redistribution (granularity, nuclear shape) by automated microscopy; ICCB library screen; type: cell-based, human; details: for CRT-GFP granularity / CRT exposure in library screen in the presence vs absence of CDDP: ICCB library, 4 h, with CDDP
Method: The data is depicted as mean±s.e.m. of quadruplicates from a representative experiment. (C) Immunofluorescene was conducted on CRT-GFP expressing cells by means of staining with anti-CRT antibody and subsequent confocal image acquisition. (D) CRT has been cloned in frame n-terminal to a HaloTag® sequence followed by a KDEL ER retention signal. (E) The impermeable HaloTag® ligand forms covalent bonds exclusively with surface exposed HaloTag®-CRT fusion protein, whereas intracellular HaloTag®-CRT remains undetected.
Compounds from the ICCB known bioactive compounds library have been tested for their capacity to induce CRT-exposure. […] The cells were incubated for 4 h and were acquired by means of automated microscopy. The data is depicted as dot plots and representative images (B).
After washing with PBS 4 viewfields per well were acquired by means of a BD pathway 855 automated microscope.

[2] = system: U2OS cells; type: cell-based
Method: The data is depicted as representative images (A) and (B) normalized Bax-GFP granularity values.
The data represents mean±s.e.m. of quadruplicates from a representative experiment. […] 16 h after treatment, cell death was monitored by simultaneous staining with 3,3 dihexyloxacarbocyanine iodide (DiOC6(3)) and propidium iodide (PI), and the percentage of dying (DiOC6(3)^low PI^−, open bars) and dead (DiOC6(3)^low PI^+, closed bars) cells was determined by cytofluorometry.
Cell death was quantified by cytofluorometric analysis using a FACS Vantage (Becton Dickinson, Mountain View, USA) as described previously (REF). Thus, cells were stained with 40 nM 3,3 dihexyloxacarbocyanine iodide (DiOC6(3); Molecular Probes, Eugene, Oreg., USA) for 30 min at 37° C. and concomitantly with 1 μg/ml propidium iodide (PI; Sigma Aldrich) for 30 min at 37° C. to determine the mitochondrial transmembrane potential. Data were statistically evaluated using CellQuest Pro software (Becton Dickinson, Mountain View, USA).

[3] = system: MCA205 cells; details: Martins I et al, Oncogene 2010; cited from earlier work
[4] = system: MCA205 cells; experiment: In vivo anti-tumor vaccination with treated MCA205 cells (Example 3); details: MCA205, rechallenge with live cells
Method: (F) MCA205 cells have been used for tumor vaccination in vivo. […] The mice have been rechallenged after 6 days with living cells and the tumor growth is depicted in the survival plot (n=10).
Tumor growth was evaluated for at least 50 days.

[5] = system: U2OS cells; experiment: Analysis of surface exposed CRT (HaloTag ligand, anti-CRT immune staining)
[6] = system: CT26 and MCA cells; experiment: CRT exposure in single or cotreated cells (MitoC, cardiac glycosides); type: cell-based, mouse
Method: (B) CRT exposure was analysed in the cells that were single or cotreated as indicated by means of CRT surface staining and FACS quantification.

[7] = system: MCA205 cells; experiment: In vivo anti-tumor vaccination with MitoC / Digoxin treated MCA205 cells; set-up: species or system mice; details: 20 μM MitoC
[8] = system: MCA205; experiment: Tumor vaccination with MTX-treated MCA205 and rechallenge; type: in vivo; details: s.c. injection of MTX treated MCA205 cells, WT mice (not athymic nude mice)
Method: MCA205 cells were treated with 2 μM MTX for 18 hrs, washed thoroughly and injected into left flank subcutaneously at 0.3 million/mouse. PBS was used as control. Mice were rechallenged with 5×10^4 live MCA205 cells in the right flank 7 days later. Tumor growth was monitored every 2-3 days.

[9] = system: CT26 overexpressing LC3-GFP; experiment: Induction of autophagy in vivo, LC3-GFP redistribution; set-up: species or system mice; details: i.v., tumors withdrawn 48 hours post-therapy
Method: After 8 days of tumor implantation (CT26 mouse colon cancer genetically modified to overexpress LC3-GFP in BALB/c immunocompetent mice), oxaliplatin or mitoxanthrone was inoculated systemically (i.v.). Tumors were withdrawn at 48 hours post-therapy and immunofluorescence stainings were performed on frozen sections of tumor tissues to visualize nuclei (in Hoechst blue), and autophagosomes in green (LC3-GFP). […] The lower panel is a graph summarizing enumeration of autophagosomes positive cells in 10 independent sections per tumor and animal (each dot represents one tumor). Statistical analyses were performed with Anova test (Fisher's exact method) with significant results at p<0.05.

[10] = system: CT26 (ATG5 or ATG7 knock down, WT); experiment: Chemotherapy of established autophagy-deficient CT26 tumors ± apyrase inhibitor; type: in vivo, mice
Method: One million CT26 knock down with small interfering RNA specific for ATG5 or ATG7 or controls WT were treated with the anthracyclin mitoxanthrone (MTX) at 8 days post-implantation in one flank of a naïve animal (BALB/C mouse). […] Monitoring of tumor growth was recorded with a caliper (product of perpendicular diameters) and is depicted for 5 mice/group. Statistical analyses were performed with Anova test (Fisher's exact method) with significant results at p<0.05.

[11] = system: U2OS cells; experiment: US Drug library screen: CRT-GFP, HMGB1-GFP, quinacrine; details: 1 μM, 4 h / 24 h / 16 h
[12] = system: CT26 (siATG5, siATG6, siATG7); experiment: Prophylactic immunization with autophagy-deficient dying CT26 cells ± apyrase inhibitor; type: in vivo; details: anthracycline-treated cells injected s.c., immunocompetent mice
Method: One million CT26 knock down with small interfering RNA specific for ATG5, ATG6 (Beclin 1 BCN1), or ATG7 or controls siCO were treated with the anthracyclin mitoxanthrone (MTX) for 18 hours, washed and inoculated in one flank of a naïve animal (BALB/C mouse). Positive controls are CT26 treated with MTX and negative controls are CT26 treated with PBS. Ten days later, mice were rechallenged with 3× the minimal tumorigenic dose of live CT26 cells on the opposite flank and monitoring of tumor growth was recorded with a caliper (product of perpendicular diameters). The % of tumor free animals are shown in the graph and the number of animals per group is indicated (n=20). Statistical analyses were performed with Anova test (Fisher's exact method) with significant results at p<0.05.
Idem as in FIG. 40 but the dying cells (siCO or siATG7) were admixed (or not) with apyrase inhibitors (AI) (apyrases are enzymes hydrolyzing ATP in the extracellular milieu) and/or suramine (SUR) or oxidized ATP (OXY), both inhibitors of purinergic receptors at the conventional dosing (previously reported). The % of tumor free animals are shown in the graph and the number of animals per group is indicated (n=20). Statistical analyses were performed with Anova test (Fisher's exact method) with significant results at p<0.05.

[13] = system: MCA205 sarcoma; experiment: Anthracycline chemotherapy of established MCA205 sarcoma (intratumoral DX); type: in vivo, mice; details: CH-223191 daily i.p. for 4 days from day of DX
Method: 0.8 million MCA205 or CT26 or TS/A tumor cells were inoculated subcutaneously near the thigh into C57Bl/6 (H-2^b) or BALB/c (H-2^d) mice. Anthracyclines-based chemotherapy was performed in MCA205 and CT26 models by intratumoral injecting DX (2 mM, […]) when tumors reached the size 25-40 mm^2. Radiotherapy was performed by local X-ray irradiation (10 Gy, RT250, Phillips) at the unshielded tumor area when TS/A tumor reached the size 40-60 mm^2.

[14] = system: MCA205; experiment: Pro-apoptotic effect on MCA205, DiOC6(3) fluorescence; type: cell-based, mouse; details: alone or in combination with anthracyclines (DX, MTX)
Method: (B) The impact of AHR pharmacological inhibitor CH-223191 on pro-apoptotic effect of DX or MTX against MCA205 was measured. A reduction in mitochondrial membrane potential indicated by decreased DiOC6(3) fluorescence was used to show cell apoptosis. The experiment was performed twice with identical results.

[15] = molecular target: AHR (Homo sapiens, UniProt P35869); details: pure antagonist of AHR; cited from earlier work
Sequence of AHR (P35869 11-848, species assumed): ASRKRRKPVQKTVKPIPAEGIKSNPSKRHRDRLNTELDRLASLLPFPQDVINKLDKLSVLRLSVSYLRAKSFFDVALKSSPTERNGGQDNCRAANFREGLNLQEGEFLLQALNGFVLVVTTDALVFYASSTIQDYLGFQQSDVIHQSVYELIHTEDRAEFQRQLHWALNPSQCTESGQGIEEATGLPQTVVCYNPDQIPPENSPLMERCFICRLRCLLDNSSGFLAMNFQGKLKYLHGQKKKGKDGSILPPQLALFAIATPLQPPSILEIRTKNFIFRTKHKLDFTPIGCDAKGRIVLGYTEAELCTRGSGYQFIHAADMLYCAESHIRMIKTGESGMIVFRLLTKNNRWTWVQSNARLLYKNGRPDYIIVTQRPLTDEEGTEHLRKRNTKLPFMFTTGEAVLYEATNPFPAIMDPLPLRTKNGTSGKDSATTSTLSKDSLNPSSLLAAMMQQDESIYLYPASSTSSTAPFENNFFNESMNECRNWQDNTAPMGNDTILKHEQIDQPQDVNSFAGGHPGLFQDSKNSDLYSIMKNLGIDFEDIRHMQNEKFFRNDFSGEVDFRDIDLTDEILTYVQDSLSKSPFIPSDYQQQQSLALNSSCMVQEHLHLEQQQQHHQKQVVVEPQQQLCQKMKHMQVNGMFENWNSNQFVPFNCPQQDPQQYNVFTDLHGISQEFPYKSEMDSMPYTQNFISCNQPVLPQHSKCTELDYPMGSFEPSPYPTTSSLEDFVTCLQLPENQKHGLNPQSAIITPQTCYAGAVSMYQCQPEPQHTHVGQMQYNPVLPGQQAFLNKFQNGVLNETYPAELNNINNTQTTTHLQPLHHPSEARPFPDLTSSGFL

[16] = MTX at 8 days post-implantation

## C/C=C(/C)C(=O)O[C@H]1C(C)=C2[C@H]([C@@H]1OC(=O)CCCCCCC)[C@@](C)(OC(C)=O)C[C@H](OC(=O)CCC)[C@@]1(O)[C@H]2OC(=O)[C@@]1(C)O [THAPS, thapsigargin]
[1]
  CRT-GFP granularity / CRT exposure in library screen in the presence vs absence of CDDP: particularly efficient in inducing CRT-GFP granularity in the presence (but not in the absence) of CDDP
[1]; listed as thapsigargin
  CRT-GFP granularity / CRT exposure in library screen in the presence vs absence of CDDP: the sole agent (out of 450 compounds) to induce CRT exposure in the presence of cisplatin but not in the absence of cisplatin
[2]
  cytotoxic effects: exhibited no major cytotoxic effects
  effect on toxicity of CDDP: did not increase the toxicity of CDDP
[3]
  immunogenic cell death when combined with cisplatin: could induce immunogenic cell death when combined with cisplatin
[4]
  anticancer immune response, vaccine of dying cells generated with CDDP combined with THAPS: elicited an effective anticancer immune response in vivo
[5]; in the absence of CDDP
  CRT-GFP granularity, CRT-HaloTag exposure, native CRT exposure, THAPS alone: comparably inefficient
[5]; in the presence of CDDP
  CRT-GFP granularity, CRT-HaloTag exposure, native CRT exposure, THAPS with CDDP: highly efficient in the presence of CDDP

## CO[C@@]12[C@H](COC(N)=O)C3=C(C(=O)C(C)=C(N)C3=O)N1C[C@@H]1N[C@@H]12 [MitoC, mitomycin C]
[6]
  CRT exposure, MitoC by its own: incapable of exposing CRT
[7]
  vaccinating effect, MitoC alone: failed to confer any vaccinating effect

## O=C1c2c(O)ccc(O)c2C(=O)c2c(NCCNCCO)ccc(NCCNCCO)c21 [MTX, mitoxantrone]
[8]
  protection against rechallenge with live MCA205 tumor cells: could protect WT mice
[1]; 1 μM MTX, 150 μM CDDP, 300 μM OXP
  CRT-GFP granularity (relocation to peripheral granular distribution): only observed after treatment of the cells with MTX or OXP
[9]
  redistribution of LC3-GFP in autophagosomes in tumors: Redistribution of LC3-GFP in autophagosomes can be visualized post-therapy
[10]; [16]
  growth of ATG5 and ATG7 deficient tumors under MTX: not controlled by MTX therapy
  growth of CT26 WT tumors under MTX: significantly respond
[11]
  rank in screen for exposing CRT and emitting HMGB1 and ATP: most potent in exposing CRT, and emitting HMGB1 and ATP

## CCN(CC)c1ncnc2c1ncn2C1OC(COP(=O)(O)OP(=O)(O)C(Br)(Br)P(=O)(O)O)C(O)C1O [ARL67156, 6-N,N-Diethyl-D-beta-gamma-dibromomethylene adenosine triphosphate]
[12]
  immunogenicity of autophagy-deficient dying tumour cells with co-injected apyrase inhibitor: defect in immunogenicity can be restored
[10]; tumours established for 8 days
  response of autophagy-deficient tumours to anthracycline chemotherapy with intratumoural apyrase inhibitor: defect is again overcome

## Cc1ccccc1N=Nc1ccc(NC(=O)c2ccnn2C)c(C)c1 [CH-223191, 2-methyl-2H-pyrazole-3-carboxylic acid (2-methyl-4-o-tolylazo-phenyl)-amide]
[13]
  effect on efficacy of DX on established cancers in vivo: markedly reduced the efficacy of DX
[14]
  cell-autonomous effects on the tumor cells: no cell-autonomous effects on the tumor cells
[15]
  concentration up to which no AHR agonist actions: > 100 µM
